Toxic doses and inconclusive results are not listed. No stated cut-off is given here; in the data, active means T/C of 150% or more; inactive means T/C below 125%.
Test system: L1210 leukemia ip in BDF1 mice, survival T/C
Test: NCI In Vivo Anticancer Drug Screen. Data for tumor model L1210 Leukemia (intraperitoneal) in B6D2F1 (BDF1) mice
Conditions: endpoint: mean survival time, higher = longer survival
Procedure, shortened: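 Tumor was transplanted into mice, which were then dosed with test compound or vehicle alone. Survival was recorded for each group, and the treated figure was expressed relative to the control figure.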

Measured: T/C

O=C(c1ccccc1)N(CCCl)C(=O)N(CCCl)C(=O)c1ccccc1
inactive: dose: 75.0 mg/kg/injection, schedule: Q01DX001 (ip), vehicle: carboxymethylcellulose (CMC) 104 % of control | dose: 75.0 mg/kg/injection, schedule: Q01DX009 (ip), vehicle: saline with Tween-80 95 % of control | dose: 75.0 mg/kg/injection, schedule: Q04DX003 (ip), vehicle: saline with Tween-80 91 % of control | dose: 150.0 mg/kg/injection, schedule: Q01DX001 (ip), vehicle: carboxymethylcellulose (CMC) 101 % of control | dose: 150.0 mg/kg/injection, schedule: Q01DX009 (ip), vehicle: saline with Tween-80 98 % of control | dose: 150.0 mg/kg/injection, schedule: Q04DX003 (ip), vehicle: saline with Tween-80 92 % of control | dose: 300.0 mg/kg/injection, schedule: Q01DX001 (ip), vehicle: carboxymethylcellulose (CMC) 103 % of control | dose: 300.0 mg/kg/injection, schedule: Q04DX003 (ip), vehicle: saline with Tween-80 89 % of control

CC(=O)OC1OC(C[Se][As](C)C)C(OC(C)=O)C(OC(C)=O)C1OC(C)=O (stereo not given)
inactive: dose: 100.0 mg/kg/injection, schedule: Q04DX003 (ip), vehicle: Klucel (hydroxypropylcellulose) (HPC) 104 % of control | dose: 200.0 mg/kg/injection, schedule: Q04DX003 (ip), vehicle: Klucel (hydroxypropylcellulose) (HPC) 98 % of control | dose: 400.0 mg/kg/injection, schedule: Q04DX003 (ip), vehicle: Klucel (hydroxypropylcellulose) (HPC) 95 % of control

CC(=O)O/N=C1\C(C)=[N+]([O-])[N+]([O-])=C1c1ccccc1
inactive: dose: 50.0 mg/kg/injection, schedule: Q01DX009 (ip), vehicle: Klucel (hydroxypropylcellulose) (HPC) 98 % of control | dose: 100.0 mg/kg/injection, schedule: Q01DX009 (ip), vehicle: Klucel (hydroxypropylcellulose) (HPC) 87 % of control | dose: 200.0 mg/kg/injection, schedule: Q01DX009 (ip), vehicle: Klucel (hydroxypropylcellulose) (HPC) 90 % of control

CCC(C)C(C(=O)OC1CCN(CC)CC1)c1ccccc1 (stereo not given)
inactive: dose: 100.0 mg/kg/injection, schedule: Q04DX003 (ip), vehicle: saline 94 % of control
